Where no end group is shown, it is not given here.
Tested on: rabbit anti-thymosin α1 antiserum
Assay: radioimmunoassay for thymosin α1 (inhibition of tracer binding / cross-reactivity, double antibody method)
Conditions: for ED50 - Amount of protein (ng) required to produce a 50% inhibition in RIA: Table 1, 125I-[Tyr1]-thymosin α1 tracer
Description: a. Preparation of antisera
Synthetic thymosin α1 was coupled to Keyhole Limpet Hemocyanin (KLH) by means of glutaraldehyde using the following procedure. Equivalent amounts (dry weight) of each protein, thymosin α1 and hemocyanin, were dissolved in 0.25 M NaPO4, pH 7.0 buffer at a concentration of 2 mg/ml. […] The reaction was allowed to continue for 3 hours while being stirred at room temperature. The reaction mixture was diluted in sterile saline to a final concentration of thymosin α1 of 100 μg/ml. The solution of coupled thymosin α1 was aliquoted and stored at -20° C.
The mixture of products resulting from the cross-linking reactions carried out at room temperature was not fractionated or purified in any way. The thymosin α1 KLH conjugate was diluted with sterile normal saline and stored frozen for immunizations. Rabbits were immunized by administering 100 μg thymosin α1 (as the KLH conjugate) in emulsion with Ereund's Complete Adjuvant at 15-20 intradermal sites on the back of each rabbit according to the method of Vaitukaitis et al., J. Clin. Endoch. […] Weekly boosts of 50 μg thymosin α1 per animal in Freund's Incomplete Adjuvant were also administered at multiple intradermal sites.
b. Radioiodination of [Tyr^1 ]-thymosin α1
After a reaction time of 30 seconds at room temperature, the enzyme was inhibited by the addition of […]. […] The tracer was diluted 1:2,000 in immunoassay buffer to provide 4,000-5,000 cpm per assay tube, which is equivalent to less than 1 pg peptide mass per assay tube.
Separation of free from bound tracer is carried out by the addition of goat anti-rabbit gamma globulin serum, incubation for 1 hour at 37° C. and finally incubation at 4° C. for 16 hours. The immunoprecipitate is pelleted by centrifugation at 2500 rpm for 20 minutes, the supernatant is aspirated and discarded, and the radioactivity in the immunoprecipitate is counted in an automatic gamma spectrometer. The counts per minute for standards and unknowns are corrected for non-specific background and compared to the total counts per minute for the reaction tubes where no competing antigen was introduced.

Row | Molecule | ED50 - Amount of protein (ng) required to produce a 50% inhibition in RIA | further results
1 | thymopoietin II fragment 29-41: thymopoietin II fragment 29-41 (Bachem, Inc.) (AGEQRKDVYVQLY; UniProt P42167 29-41, looked up, fragment) [reference compound] | – | cross-reactivity / competition in the RIA (in words): no cross-reactivity
2 | Glucagon (porcine): Glucagon (porcine) | > 500,000 ng | –
3 | Fetuin (bovine): Fetuin (bovine) | > 250,000 ng | –
4 | Synthetic thymosin α1: thymosin α1 obtained by peptide synthesis procedures (SDAAVDTSSEITTKDLKEKKEVVEEAEN; ends and bridges not checked; UniProt P06454 2-29, looked up) [reference compound] | 0.40 ng | –
5 | RPPGFSPFR [Bradykinin, reference compound] | > 50,000 ng | –
6 | Insulin (porcine): Insulin (porcine) | > 200,000 ng | –
7 | Erythopoietin (human): Erythopoietin (human) | > 160,000 ng | –
8 | thymosin α1: heat stable, acidic polypeptide composed of 28 amino acid residues (SDAAVDTSSEITTKDLKEKKEVVEEAEN; ends and bridges not checked; UniProt P06454 2-29, looked up) | – | ED50 (50% inhibition) of standard curve (RIA standard curve): 130 to 160 pg; operating range for the assay (RIA standard curve): 15 to 800 pg; slope at inflection point (50% inhibition) (RIA standard curve): -1.0; minimal detectable dose (10% inhibition) (RIA standard curve, typically): 8 to 15 pg
9 | Myoglobin (equine): Myoglobin (equine) (protein, UniProt P68082 2-154, looked up) Myoglobin: GLSDGEWQQVLNVWGKVEADIAGHGQEVLIRLFTGHPETLEKFDKFKHLKTEAEMKASEDLKKHGTVVLTALGGILKKKGHHEAELKPLAQSHATKHKIPIKYLEFISDAIIHVLHSKHPGDFGADAQGAMTKALELFRNDIAAKYKELGFQG | 50,000 ng | –
10 | alpha-fetoprotein: oncodevelopmental antigen alpha-fetoprotein (Hoffmann-La Roche Inc.) (protein, UniProt P02771 19-609, looked up) Alpha-fetoprotein: RTLHRNEYGIASILDSYQCTAEISLADLATIFFAQFVQEATYKEVSKMVKDALTAIEKPTGDEQSSGCLENQLPAFLEELCHEKEILEKYGHSDCCSQSEEGRHNCFLAHKKPTPASIPLFQVPEPVTSCEAYEEDRETFMNKFIYEIARRHPFLYAPTILLWAARYDKIIPSCCKAENAVECFQTKAATVTKELRESSLLNQHACAVMKNFGTRTFQAITVTKLSQKFTKVNFTEIQKLVLDVAHVHEHCCRGDVLDCLQDGEKIMSYICSQQDTLSNKITECCKLTTLERGQCIIHAENDEKPEGLSPNLNRFLGDRDFNQFSSGEKNIFLASFVHEYSRRHPQLAVSVILRVAKGYQELLEKCFQTENPLECQDKGEEELQKYIQESQALAKRSCGLFQKLGEYYLQNAFLVAYTKKAPQLTSSELMAITRKMAATAATCCQLSEDKLLACGEGAADIIIGHLCIRHEMTPVNPGVGQCCTSSYANRRPCFSSLVVDETYVPPAFSDDKFIFHKDLCQAQGVALQTMKQEFLINLVKQKPQITEEQLEAVIADFSGLLEKCCQGQEQEVCFAEEGQKLISKTRAALGV | – | cross-reactivity / competition in the RIA (in words): do not cross-react

Second part, led by results:

Row | ED50 - Amount of protein (ng) required to produce a 50% inhibition in RIA | Molecule | further results
11 | > 250,000 ng | Serum albumin (bovine): Serum albumin (bovine) | –
12 | > 200,000 ng | Hemoglobin (human): Hemoglobin (human) | –
13 | > 15,000 ng | TP.5: TP.5 (Ortho Pharmaceuticals) [reference compound] | cross-reactivity / competition in the RIA (in words): no cross-reactivity
14 | > 200,000 ng | Cytochrome C (equine): Cytochrome C (equine) | –
15 | 0.45 ng | Natural thymosin α1: heat stable, acidic polypeptide composed of 28 amino acid residues, isolated from calf thymus thymosin fraction 5 (SDAAVDTSSEITTKDLKEKKEVVEEAEN; ends and bridges not checked; UniProt P01252 2-29, looked up) | –
16 | > 50,000 ng | Transferrin (human): Transferrin (human) | –
17 | > 25,000 ng | CEA: oncodevelopmental antigen, carcinoembryonic antigen (Hoffmann-La Roche Inc.) (protein, UniProt P06731 35-685, looked up) Cell adhesion molecule CEACAM5: KLTIESTPFNVAEGKEVLLLVHNLPQHLFGYSWYKGERVDGNRQIIGYVIGTQQATPGPAYSGREIIYPNASLLIQNIIQNDTGFYTLHVIKSDLVNEEATGQFRVYPELPKPSISSNNSKPVEDKDAVAFTCEPETQDATYLWWVNNQSLPVSPRLQLSNGNRTLTLFNVTRNDTASYKCETQNPVSARRSDSVILNVLYGPDAPTISPLNTSYRSGENLNLSCHAASNPPAQYSWFVNGTFQQSTQELFIPNITVNNSGSYTCQAHNSDTGLNRTTVTTITVYAEPPKPFITSNNSNPVEDEDAVALTCEPEIQNTTYLWWVNNQSLPVSPRLQLSNDNRTLTLLSVTRNDVGPYECGIQNELSVDHSDPVILNVLYGPDDPTISPSYTYYRPGVNLSLSCHAASNPPAQYSWLIDGNIQQHTQELFISNITEKNSGLYTCQANNSASGHSRTTVKTITVSAELPKPSISSNNSKPVEDKDAVAFTCEPEAQNTTYLWWVNGQSLPVSPRLQLSNGNRTLTLFNVTRNDARAYVCGIQNSVSANRSDPVTLDVLYGPDTPIISPPDSSYLSGANLNLSCHSASNPSPQYSWRINGIPQQHTQVLFIAKITPNNNGTYACFVSNLATGRNNSIVKSITVSASGTSPGLSA | cross-reactivity / competition in the RIA (in words): do not cross-react

From patent US4339427A, “Radioimmunoassay of thymosinα” (Hoffmann-la Roche Inc., priority 1980, dated 1982)
